What was measured:
human CRC HT-29 cells [1] = experiment: MTT cell viability / IC50 on HT-29 cells; type: cell-based; details: for Cell viability (%) HT-29 / viability at 50 µM: 50 µM, MTT screening; for IC50: MTT assay, 1 to 50 µM, mean ± SEM of at least three experiments; for viability at 50 µM: HT-29
Description: (§1) Cells were grown in DMEM medium for HT-29 cells and RPMI 1640 medium for HCT116 cells, supplemented with 10% FBS, 1% L-glutamine and 100 U/mL penicillin and 100 μg/mL streptomycin. Cultures were maintained in a humidified atmosphere containing 5% CO2 at 37 °C. Stock solutions of each compound were used at 10^−2 M in DMSO and then diluted in culture medium to obtain the appropriate final concentrations. […] L929 cell line is a non-cancer cell line derived from L-strain (L cells) and has been grown in the Peptinov laboratory for years. L929 cells are murine adherent fibroblasts from subcutaneous connective tissue (areolar and adipose tissues). Cells were grown in DMEM medium supplemented with 10% FBS, 1% L-glutamine and 100 U/mL penicillin and 100 µg/mL streptomycin and maintained in a humidified incubator at 37 °C, 5% CO2. When confluence is at 80%, cells are trypsinyzed for 3 min and diluted in fresh medium. Each batch of cells is kept for 15 passages before being discarded and a new batch thawed.
(§2) All compounds were tested on the metabolic activity of the cells using the MTT colorimetric assay. Briefly, cells were seeded in 96-well microplates at 8 × 10^3 cells/well for human CRC HT-29 cells and 5 × 10^3 cells/well for human CRC HCT116 cells and grown for 24 h in appropriate culture medium prior to exposure or not to compounds (6–27) with concentration ranges from 1 to 50 µM. After 48 h of treatment, MTT (5 g/L in Phosphate-buffered saline (PBS)) was added and incubated for another 3 h. The MTT was then removed from the wells and 100 µL/well of DMSO were added to dissolve formazan. The optical density was detected with a microplate reader (Thermoscientific, Multiskan FC) at 550 nm and cell viability was expressed as a percentage of each treatment condition compared to control cells. IC50 values were calculated for all compounds from the dose–response curve.

human CRC HCT116 cells = experiment: MTT cell viability / IC50 on HCT116 cells; type: cell-based; details: for IC50: MTT assay, 1 to 50 µM, mean ± SEM of at least three experiments; for viability at 50 µM: HCT-116
Description: as §1, §2

human CRC HT-29 cells [2] = experiment: DNA fragmentation, Cell Death Detection ELISA, HT-29; type: cell-based; details: treated at IC50, n-fold compared to control
Description: Human CRC HT-29 and HCT116 cells were treated or not with the determined IC50 values of compounds (12a, 10a, 10b) for 24 and 48 h and then harvested with trypsin. Histone release from the nucleus during apoptosis was analyzed using the Cell Death Detection ELISA^PLUS as previously described. Cytosol extracts from 10^5 cells of each condition were obtained and DNA fragmentation was measured according to the manufacturer’s protocol. Results were reported as n-fold compared to control cells.

PARP = experiment: Western blot of cleaved PARP in HT-29 cells; type: cell-based, human
Description: Human CRC HT-29 and HCT116 cells were treated or not with the determined IC50 values of compounds (12a, 10a, 10b) for indicated times (6, 12, 24 and 48h) and then harvested with trypsin. For total protein extraction, collected samples of each condition were washed with PBS. Then, the total cell pool was centrifuged at 200× g for 5 min at 4 °C and homogenized in RIPA lysis buffer (50 mM HEPES, pH 7.5, 150 mM NaCl, 1% sodium deoxycholate, 1% NP-40, 0.1% Sodium Dodecyl Sulfate (SDS), […] of aprotinin) containing protease inhibitors according to the manufacturer’s instructions as previously described. Proteins (60 µg) were separated on 12.5% SDS-PAGE gels and transferred to polyvinylidene difluoride (PVDF) membranes. Membranes were probed with respective human antibodies against caspase-3, cleaved caspase-3, PARP and Akt, ERK, p38 MAP Kinases and its phosphorylated forms according to the manufacturer’s instructions. After incubation with appropriate secondary antibodies, blots were developed using the «Immobilon Western » substrate following the manufacturer’s protocol and G:BOX system (Syngene, Ozyme). Membranes were then reblotted with human anti-β-actin used as a loading control.
Cells were treated or not for 24 and 48 h, with IC50 values of compounds 10a, 10b and 12a, for human CRC HT-29 cells and compounds 10a and 12a for human CRC HCT116 cells. Total lysates were collected, and expression of apoptosis-related proteins was determined by Western blot analysis.

[3] = Homo sapiens, 50 µM, 48 h, MTT screening
[4] = concentrations up to 50 µM, 48 h

SMILES	IC50 (human CRC HT-29 cells [1]; 48 h) [µM]	IC50 (human CRC HCT116 cells; 48 h) [µM]	IC50 (human CRC HT-29 cells [1]; Homo sapiens, HT-29, 48 h) [µM]	IC50 (human CRC HCT116 cells; Homo sapiens, HCT-116, 48 h) [µM]	also measured
COc1ccc(C(=Cc2ccc(C)cc2)c2ccccn2)cc1 [Compound 7b, 2-(1-(4-methoxyphenyl)-2-(p-tolyl)vinyl)pyridine]	36.2 ± 4.56	> 50	–	–	Cell viability (%) HT-29 (human CRC HT-29 cells [1]; 48 h): < 50%
COc1ccc(C(Oc2ccc(F)cc2)c2ccccn2)cc1 (centres unmarked) [Compound 23, 2-((4-fluorophenoxy)(4-methoxyphenyl)methyl)pyridine]	–	–	> 50	> 50	–
COc1ccc(C(=Cc2ccc(Cl)cc2)c2ccccn2)cc1 [Compound 14a, 2-(2-(4-chlorophenyl)-1-(4-methoxyphenyl)vinyl)pyridine]	28.5 ± 1.82	–	< 30	42.7 ± 2.24	viability at 50 µM (human CRC HT-29 cells [1]; Homo sapiens, 48 h): < 50%; viability at 50 µM (human CRC HCT116 cells; [3]): < 50%
COc1ccc(C(=Cc2ccccc2)c2ccccn2)cc1 [Compound 6a, 2-(1-(4-méthoxyphenyl) -2-phenylvinyl) pyridine]	–	–	30.3 ± 1.78	35.6 ± 2.08	viability at 50 µM (human CRC HT-29 cells [1]; Homo sapiens, 48 h): < 50%; viability at 50 µM (human CRC HCT116 cells; [3]): < 50%
COc1ccc(C(Oc2ccc(N(C)C)cc2)c2ccccn2)cc1 (centres unmarked) [Compound 26, 4-((4-methoxyphenyl)(pyridin-2-yl)methoxy)-N,N-dimethylaniline]	–	–	> 50	> 50	–
COc1ccc(C=C(c2ccc(OC)cc2)c2ccccn2)cc1 [Compound 8a, 2-(1,2-bis(4-methoxyphenyl)vinyl)pyridine]	–	–	43.5 ± 4.91	> 50	viability at 50 µM (human CRC HT-29 cells [1]; Homo sapiens, 48 h): < 50%
COc1ccc(C(=Cc2ccc(Cl)cc2)c2ccccn2)cc1 [Compound 14b, 2-(2-(4-chlorophenyl)-1-(4-methoxyphenyl)vinyl)pyridine]	> 50	> 50	–	–	–
COc1ccc(C(=Cc2ccc(Br)cc2)c2ccccn2)cc1 [Compound 13b, 2-(2-(4-bromophenyl)-1-(4-methoxyphenyl)vinyl)pyridine]	> 50	26.1 ± 2.08	–	< 35	viability at 50 µM (human CRC HCT116 cells; [3]): < 50%
COc1ccc(C(Oc2ccccc2)c2ccccn2)cc1 (centres unmarked) [Compound 17, 2-((4-methoxyphenyl)(phenoxy)methyl)pyridine]	–	–	> 50	> 50	–
COc1ccc(OC(c2ccc(OC)cc2)c2ccccn2)cc1 (centres unmarked) [Compound 19, 2-((4-methoxyphenoxy)(4-methoxyphenyl)methyl)pyridine]	–	–	> 50	> 50	–
COc1ccc(C(Oc2ccc(C(C)=O)cc2)c2ccccn2)cc1 (centres unmarked) [Compound 27, 1-(4-((4-methoxyphenyl)(pyridin-2-yl)methoxy)phenyl)ethanone]	–	–	> 50	> 50	–
COc1ccc(C(Oc2ccc(C)cc2)c2ccccn2)cc1 (centres unmarked) [Compound 18, 2-((4-methoxyphenyl)(p-tolyloxy)methyl)pyridine]	–	–	> 50	> 50	–
COc1ccc(C(=Cc2ccc(C)cc2)c2ccccn2)cc1 [Compound 7a, 2-(1-(4-methoxyphenyl)-2-(p-tolyl)vinyl)pyridine]	–	–	35 ± 1.99	> 50	viability at 50 µM (human CRC HT-29 cells [1]; Homo sapiens, 48 h): < 50%
COc1ccc(C(Oc2ccc(Br)cc2)c2ccccn2)cc1 (centres unmarked) [Compound 22, 2-((4-bromophenoxy)(4-methoxyphenyl)methyl)pyridine]	–	–	37.9 ± 1.87	41.5 ± 1.48	viability at 50 µM (human CRC HT-29 cells [1]; Homo sapiens, 48 h): < 50%; antiproliferative activity HT-29 (in words) (human CRC HT-29 cells [1]; [4]): potential antiproliferative activity; viability at 50 µM (human CRC HCT116 cells; [3]): < 50%; antiproliferative activity HCT116 (in words) (human CRC HCT116 cells; [4]): potential antiproliferative activity
COc1ccc(C(=Cc2ccc(F)cc2)c2ccccn2)cc1 [Compound 15b, 2-(2-(4-fluorophenyl)-1-(4-methoxyphenyl)vinyl)pyridine]	> 50	> 50	–	–	–
COc1ccc(C(=Cc2ccc(C(C)C)cc2)c2ccccn2)cc1 [Compound 9a, 2-(2-(4-isopropylphenyl)-1-(4-methoxyphenyl)vinyl)pyridine]	> 50	> 50	–	–	–
COc1ccc(C(Oc2ccc([N+](=O)[O-])cc2)c2ccccn2)cc1 (centres unmarked) [Compound 25, 2-((4-methoxyphenyl)(4-nitrophenoxy)methyl)pyridine]	–	–	> 50	> 50	–
COc1ccc(C(=Cc2ccc(F)cc2)c2ccccn2)cc1 [Compound 15a, 2-(2-(4-fluorophenyl)-1-(4-methoxyphenyl)vinyl)pyridine]	–	–	43.43 ± 0.31	> 50	viability at 50 µM (human CRC HT-29 cells [1]; Homo sapiens, 48 h): < 50%
COc1ccc(C(=Cc2ccc(O)cc2)c2ccccn2)cc1 [Compound 11b, 4-(2-(4-methoxyphenyl)-2-(pyridin-2-yl)vinyl)phenol]	–	–	> 50	> 50	–
COc1ccc(C(=Cc2ccccc2)c2ccccn2)cc1 [Compound 6b, 2-(1-(4-méthoxyphenyl) -2-phenylvinyl) pyridine]	> 50	> 50	–	–	–
COc1ccc(C(=Cc2ccc(C(C)C)cc2)c2ccccn2)cc1 [Compound 9b, 2-(2-(4-isopropylphenyl)-1-(4-methoxyphenyl)vinyl)pyridine]	–	–	34.9 ± 0.78	> 50	viability at 50 µM (human CRC HT-29 cells [1]; Homo sapiens, 48 h): < 50%
COc1ccc(C(Oc2ccc(C(F)(F)F)cc2)c2ccccn2)cc1 (centres unmarked) [Compound 24, 2-((4-methoxyphenyl)(4-(trifluoromethyl)phenoxy)methyl)pyridine]	–	–	> 50	> 50	–
COc1ccc(C(=Cc2ccc(C(F)(F)F)cc2)c2ccccn2)cc1 [Compound 12b, 2-(1-(4-methoxyphenyl)-2-(4-(trifluoromethyl)phenyl)vinyl)pyridine]	> 50	> 50	–	–	–
COc1ccc(C(Oc2ccc(C(C)(C)C)cc2)c2ccccn2)cc1 (centres unmarked) [Compound 20, 2-((4-(tert-butyl)phenoxy)(4-methoxyphenyl)methyl)pyridine]	–	–	> 50	> 50	–
COc1ccc(C(Oc2ccc(Cl)cc2)c2ccccn2)cc1 (centres unmarked) [Compound 21, 2-((4-chlorophenoxy)(4-methoxyphenyl)methyl)pyridine]	–	–	> 50	> 50	–
COc1ccc(C(=Cc2ccc(Br)cc2)c2ccccn2)cc1 [Compound 13a, 2-(2-(4-bromophenyl)-1-(4-methoxyphenyl)vinyl)pyridine]	24 ± 2.65	36.6 ± 2.94	–	–	viability at 50 µM (human CRC HT-29 cells [1]; Homo sapiens, 48 h): < 50%; Cell viability (%) HCT116 (human CRC HCT116 cells; 50 µM, 48 h, MTT screening): < 50%
COc1ccc(C(=Cc2ccc(C(C)(C)C)cc2)c2ccccn2)cc1 [Compound 10b, 2-(2-(4-(tert-butyl)phenyl)-1-(4-methoxyphenyl)vinyl)pyridine]	25.2 ± 1.28	> 50	–	–	HT-29 DNA Fragmentation (Fold) (human CRC HT-29 cells [2]; 24 h): 1.24 Fold; HT-29 DNA Fragmentation (Fold) (human CRC HT-29 cells [2]; 48 h): 0.84 Fold; cleaved PARP expression (PARP; HT-29, treated at IC50, 24 h): never been expressed; cleaved PARP expression (PARP; HT-29, treated at IC50, 48 h): never been expressed; Cell viability (%) HT-29 (human CRC HT-29 cells [1]; 48 h): < 50%

— article PMC9855432, “Novel Set of Diarylmethanes to Target Colorectal Cancer: Synthesis, In Vitro and In Silico Studies” (Biomolecules, 2022)
